Experimental data taken from patent US10976319B2, “Cell response assay for cancer and methods of producing and using same” (Siemens Healthcare Diagnostics Inc., priority 2011, dated 2021).
Several values for one entry are separate records, joined by “and”; a condition that tells them apart may be missing. Equal values may be shown once.

Legend:
[1] = cited from earlier work; for log Ka: Eu2+ complexed by amine poly carboxylate ions
prostate cancer cells = experiment: Cell response assay for prostate cancer, cells before and after camptothecin treatment; assay type: cell-based
Method: (§1) The procedure to test the method was to collect 4 mL normal whole blood fresh into a VACUTAINER® tube (BD 6 mL VACUTAINER® K2EDTA tube, 10.8 mg, ref 367863, Becton Dickinson, Oakville, ON) and transfer the blood into a round centrifuge tube sealed with top. Cancer cells were added by 40 μL of prostate cell cancer suspension to obtain a range of 3000 to 8000 cells/mL (8 cells/μL or 1-2 per high powered filed HRP (HRP=0.2 μL)). The blood was lysed by adding 3 mL of lysis buffer (155 mM NH4Cl, 20 mM KHCO3, 0.1 mM Na2EDTA, pH 7.4). The tubes were rolled tubes to assure that the cells were evenly distributed and that lysis was complete, and then the sample was spun down for 15 minutes at 12,000 rpm. Next, the plasma was decanted as waste supernatant, and 4.0 mL of TES buffer (50 mM N-Tris [Hydroxymethyl]-2-aminoethane-sulfonic acid: TES, pH 7.4, 2150 mM NaCl, 2 mM MgSO4 and 1 mM KCO3) and 1% albumin was added, and the tube was rocked to mix the cells. The tube was spun down again for 15 minutes at 12,000 rpm, and the supernatant was decanted as waste. A final 2.0 mL of TES wash buffer was added with rocking to mix cells.
(§2) The cells were then reacted with the reagents by taking 0.5 mL of washed blood to the centrifuge tube, and 40 μL of antibodies for PSA labeled with Cy5 and 40 μL of antibodies for urokinase like plasminogen activator (uPA) or plasminogen activator inhibitor (PAI-1) labeled with Texas Red (at working stock of 0.001 to 0.1 mg/mL) and PL2L piwi like labeled with FITC (at working stock of 0.001 to 0.1 mg/mL) were added. Next, 10 μl of a 100 μg/ml 4,6 Diamidino-2-phenylindole dihydrochloride (DAPI; a nucleic acid binding probe) was added from a solution in TES buffer. This was followed by incubation for 15 minutes at 37° C.
(§3) The sample was centrifuged down for 5 minutes @ 7500 rpm, and the supernatant was decanted off as waste (^˜450 μL). 500 μL of TES buffer was then added, and the sample was vortexed and centrifuged down at 5 minutes @ 7500 rpm. Again, the supernatant was decanted off by tapping as waste (^˜450 μL). A final 500 μL of TES wash buffer was added for final imaging, and 5 μL of the solution was placed on a slide with a long cover slip of glass. Phase contrast and fluorescence microscopy was conducted with the Leica DM5000 (Leica Microsystems, Buffalo Grove, Ill.).
(§4) The Texas Red label (ex 592, em 614 nm) was measured with a excitation band pass filter at 540-580 nm and emission band pass filter at 610-680 nm. The FITC label (ex 488, em 525 nm) was measured with an excitation band pass filter at 460-500 nm and an emission band pass filter at 512-543 nm. The DAPI probe (ex 355, em 460 nm) was measured with an excitation band pass filter at 340-380 nm and an emission band pass filter at 450-490 nm. The Cy5 label (ex 646, em 676 nm) was measured with an excitation band pass filter at 590-650 nm and an emission band pass filter at 665-735 nm.
A novel cell response assay for prostate cancer was developed by using PSA as a tissue type marker for prostate carcinoma (Biomarker A) that is always present in the disease state. […] Chemo resistance nature (Biomarker C) was determined using PL2L piwi like antigen to determine the inhibitory response to tissue invasiveness. […]

breast cancer cells = experiment: Cell response assay for breast cancer, cells before and after camptothecin treatment; assay type: cell-based
Method: as §1, with “breast” for “prostate”, “cells/4” for “cells/μL”
as §2, with “HER2/neu” for “PSA”
as §3, with “Ill.). A sample of cells was stained with the PSS-550 probe (ex 553, em 615 nm) and measured with an excitation band pass filter at 540-580 nm and an emission band pass filter at 610-680 nm to determine cell membrane flopping as a measure of cell death in addition to cell counts.” for “Ill.).”
as §4, with “measured with an excitation band” for “measured with a excitation band”, “nm and an emission band” for “nm and emission band”
A novel cell response assay for breast cancer was developed by using HER2/neu as a tissue type marker for carcinoma breast cancer (Biomarker A) that is always present in the disease state. […]

[2] = camptothecin concentration adjusted
[3] = when the cell death % was highest

In the case of `CC(=O)CC(=O)c1ccccc1` [HBA, benzoylacetone], the “log K” value ([1]; europium chelate) is listed as 18.9.
With `CC[C@@]1(O)C(=O)OCc2c1cc1n(c2=O)Cc2cc3ccccc3nc2-1` [camptothecin] the cancer cell count (prostate cancer cells; as the cell death % increased) was “decrease”, the phosphatidylserine flopping (prostate cancer cells; as the cell death % increased) was “increased” and the “% of the cancer cells in cultures killed” value (prostate cancer cells; [2]) was > 80% and 60% and 40%. For the same compound, the “biomarker B, namely uPA and PA1 (metastatic potential)” value (prostate cancer cells; [3]) was “increase”, the “biomarker C, namely PL2L piwi like (chemo resistance)” value (prostate cancer cells; [3]) was “decrease” and the cancer cell count (breast cancer cells; as the cell death % increased) was “decrease”. The phosphatidylserine flopping (breast cancer cells; as the cell death % increased) was “increased”, the “% of the cancer cells in cultures killed” value (breast cancer cells; [2]) was > 80% and 60% and 40% and the “biomarker B, namely uPA and PA1 (metastatic potential)” value (breast cancer cells; [3]) was “increase”. For the same compound, the “biomarker C, namely PL2L piwi like (chemo resistance)” value (breast cancer cells; [3]) was “decrease”.
For `O=C(O)CNCC(=O)O` [IMDA], the “log Ka” value [1] is listed as 6.
For `O=C(O)CN(CCN(CC(=O)O)CC(=O)O)CCN(CC(=O)O)CC(=O)O` [DTPA], the “log Ka” value [1] is listed as 23.
For `O=C(CC(=O)C(F)(F)F)c1cccs1` [TTA, thenoyltriflouracetone], the “association constant (log Ka)” value ([1]; europium chelate, when converted to enolate) is listed as 8.0.
In the case of `O=C(O)CN(CC(=O)O)C1CCCCC1N(CC(=O)O)CC(=O)O` (centres unmarked) [DCTA], the “log Ka” value [1] is given as 19.
For `O=C(O)CN(CCO)CCN(CC(=O)O)CC(=O)O` [HEDTA], the “log Ka” value [1] is listed as 15.
In the case of `O=C(O)CN(CCN(CC(=O)O)CC(=O)O)CC(=O)O` [EDTA], the “log Ka” value [1] is given as 17.
